Converted amounts (≈) assume the structure as drawn. Where two headings read alike, the source gives them in different places.
Tests used:
[1] = test system: S. aureus-15; test: MIC, clinical strain; type: cell-based, Staphylococcus aureus
Protocol: (§1) The pleuromutilin derivatives 1-4 prepared from Example 9 of the present disclosure were determined for their effect on Methicillin-resistant Staphylococcus aureus, Methicillin-resistant Staphylococcus epidermidis, standard strains of Staphylococcus aureus (S. aureus-29213 and S. aureus-25923), clinical strains 1-48 of S. aureus, Escherichia coli, S. agalactiae and S. dysgalactiae equisimilis (S. dysgalactiae-1, S. dysgalactiae-2, S. dysgalactiae-3) and minimum inhibitory concentration (MIC) using a two-fold serial dilution method, and the results were shown in Table 1, Table 2 and Table 3. The standard strains are commercially available from ATCC, and the clinical strains are preserved by Lanzhou Institute of Husbandry and Pharmaceutical Science of Chinese Academy of Agricultural Sciences (Lanzhou, Gansu, China).

[2] = test system: S. aureus-30; test: MIC, clinical strain; type: cell-based, Staphylococcus aureus
Protocol: as §1

[3] = test system: S. aureus-33; test: MIC, clinical strain; type: cell-based, Staphylococcus aureus
Protocol: as §1

[4] = test system: S. aureus-48; test: MIC, clinical strain; type: cell-based, Staphylococcus aureus
Protocol: as §1

[5] = test system: S. aureus-12; test: MIC, clinical strain; type: cell-based, Staphylococcus aureus
Protocol: as §1

[6] = test system: S. aureus-23; test: MIC, clinical strain; type: cell-based, Staphylococcus aureus
Protocol: as §1

[7] = test system: S. aureus-14; test: MIC, clinical strain; type: cell-based, Staphylococcus aureus
Protocol: as §1

[8] = test system: S. aureus-25; test: MIC, clinical strain; type: cell-based, Staphylococcus aureus
Protocol: as §1

[9] = test system: S. aureus-16; test: MIC, clinical strain; type: cell-based, Staphylococcus aureus
Protocol: as §1

[10] = test system: S. aureus-5; test: MIC, clinical strain; type: cell-based, Staphylococcus aureus
Protocol: as §1

[11] = test system: S. aureus-42; test: MIC, clinical strain; type: cell-based, Staphylococcus aureus
Protocol: as §1

[12] = test system: S. aureus-36; test: MIC, clinical strain; type: cell-based, Staphylococcus aureus
Protocol: as §1

[13] = test system: S. aureus-43; test: MIC, clinical strain; type: cell-based, Staphylococcus aureus
Protocol: as §1

[14] = test system: S. aureus-18; test: MIC, clinical strain; type: cell-based, Staphylococcus aureus
Protocol: as §1

[15] = test system: S. aureus-1; test: MIC, clinical strain; type: cell-based, Staphylococcus aureus
Protocol: as §1

[16] = test system: S. aureus-35; test: MIC, clinical strain; type: cell-based, Staphylococcus aureus
Protocol: as §1

[17] = test system: S. aureus-38; test: MIC, clinical strain; type: cell-based, Staphylococcus aureus
Protocol: as §1

[18] = test system: S. aureus-26; test: MIC, clinical strain; type: cell-based, Staphylococcus aureus
Protocol: as §1

[19] = test system: S. aureus-8; test: MIC, clinical strain; type: cell-based, Staphylococcus aureus
Protocol: as §1

[20] = test system: S. aureus-13; test: MIC, clinical strain; type: cell-based, Staphylococcus aureus
Protocol: as §1

[21] = test system: S. aureus-44; test: MIC, clinical strain; type: cell-based, Staphylococcus aureus
Protocol: as §1

[22] = test system: S. dysgalactiae-2; test: MIC, two-fold serial dilution method; type: cell-based, S. dysgalactiae equisimilis; conditions: for MIC: Streptococcus dysgalactiae, read-out: minimum inhibitory concentration
Protocol: as §1

[23] = test system: S. dysgalactiae-3; test: MIC, two-fold serial dilution method; type: cell-based, S. dysgalactiae equisimilis; conditions: for MIC: Streptococcus dysgalactiae, read-out: minimum inhibitory concentration
Protocol: as §1

[24] = test system: S. dysgalactiae-1; test: MIC, two-fold serial dilution method; type: cell-based, S. dysgalactiae equisimilis; conditions: for MIC: Streptococcus dysgalactiae, read-out: minimum inhibitory concentration
Protocol: as §1

[25] = test system: S. aureus-25923; test: MIC, two-fold serial dilution method; type: cell-based, Staphylococcus aureus; conditions: for MIC: Staphylococcus aureus, read-out: minimum inhibitory concentration
Protocol: as §1

[26] = test system: S. aureus-29213; test: MIC, two-fold serial dilution method; type: cell-based, Staphylococcus aureus; conditions: for MIC: Staphylococcus aureus, read-out: minimum inhibitory concentration
Protocol: as §1

[27] = test system: MRSE; test: MIC, two-fold serial dilution method; type: cell-based, Methicillin-resistant Staphylococcus epidermidis; conditions: for MIC: Staphylococcus epidermidis, read-out: minimum inhibitory concentration
Protocol: as §1

[28] = test system: MRSA-337371; test: In vivo antimicrobial activity experiment in mice (systemic MRSA infection, survival); conditions: for protection rate against systemic MRSA infection in mice: 20 mg/kg; for mortality rate / final survival rate: immunosuppressed mice infected i.p. with MRSA-337371; for final survival rate: end of observation
Protocol: First, an MRSA-337371 cryopreservation solution was taken out from a freezer set at −80° C. and the following steps were performed: • (1) 10 μL of the thawed MRSA-337371 cryopreservation solution was pipetted and added into 6 mL of Tryptic Soy Broth (TSB), and incubated until the bacterial solution had become turbid; • (2) a sterile inoculation loop was dipped into and picked up a small amount of the bacterial solution and was dragged on an MH agar medium for streaking, and then the MH agar medium was inverted and placed in a constant temperature incubator at 37° C. to incubate for 24 hours; • (3) a single colony on the MH agar medium was picked and inoculated in 30 mL of MH liquid medium with an inoculation loop, and placed in a constant temperature shaking incubator at 37° C. for 18 hours for later use. […]
6-week-old, about 20 g-weighted, SPF-grade healthy mice (one half male and the other female) were randomly divided into 5 groups, with 10 mice in each group (one half male and the other female), which were specifically divided into a positive control group (an MRSA infection group), a negative control group (a sterile normal saline control group, which was injected with only 10 mL/kg of drug solvent), drug control groups (a Tiamulin treatment group and a Valnemulin treatment group) and an experimental group (a derivative 2 treatment group). 100 mg/kg of cyclophosphamide was intraperitoneally injected to the mice 4 days before the experiment, and 150 mg/kg of cyclophosphamide injection was injected to the mice 1 day before the experiment to keep the mice in an immunosuppressed state. After fasting for 12 hours, except for the negative control group, the remaining 4 groups were intraperitoneally injected with 0.5 mL of 10^8 CFU/mL bacterial solution, and after 30 min, the drug control groups and the experimental group were intravenously injected with 20 mg/kg of the respective drug. The mice were continued to be reared, and observed to record the deaths daily.
Calculation of survival rate: During the experiment, the morbidity and the mortality in each group of mice was observed and recorded in detail every day, and the survival rate in each group of mice was calculated as:
Survival rate=Number of surviving animals/Number of experimental animals×100%

[29] = day 1, 20 mg/kg intravenously 30 min after infection

SMILES | in vitro minimum inhibitory concentration [2] | in vitro minimum inhibitory concentration [3] | in vitro minimum inhibitory concentration [4] | in vitro minimum inhibitory concentration [5] | in vitro minimum inhibitory concentration [6] | in vitro minimum inhibitory concentration [7] | in vitro minimum inhibitory concentration [8] | in vitro minimum inhibitory concentration [9] | in vitro minimum inhibitory concentration [10] | in vitro minimum inhibitory concentration [11] | in vitro minimum inhibitory concentration [12] | in vitro minimum inhibitory concentration [13] | in vitro minimum inhibitory concentration [14] | in vitro minimum inhibitory concentration [16] | in vitro minimum inhibitory concentration [17] | in vitro minimum inhibitory concentration [18] | in vitro minimum inhibitory concentration [19] | in vitro minimum inhibitory concentration [21] | protection rate against systemic MRSA infection in mice [28] [%] | mortality rate [28, 29] [%] | further results
C=CC1(C)CC(OC(=O)CSC(C)(C)CNC(=O)C2CCC2)C2(C)C(C)CCC3(CCC(=O)C32)C(C)C1O (centres unmarked) [derivative 2] | 0.031 | 0.031 | 0.063 | 0.031 | 0.063 | 0.063 | 0.063 | 0.031 | 0.031 | 0.063 | 0.016 | 0.016 | 0.031 | 0.125 | 0.016 | 0.063 | 0.063 | 0.031 | 60 | 10 | in vitro minimum inhibitory concentration ([1]; in µg/mL): 0.031; in vitro minimum inhibitory concentration ([15]; in µg/mL): 0.125; in vitro minimum inhibitory concentration ([20]; in µg/mL): 0.031; minimum inhibitory concentration ([22]; S. dysgalactiae-2): 0.031 µg/mL (≈ 0.0566 µM); minimum inhibitory concentration ([23]; S. dysgalactiae-3): 0.031 µg/mL (≈ 0.0566 µM); minimum inhibitory concentration ([24]; S. dysgalactiae-1): 0.031 µg/mL (≈ 0.0566 µM); minimum inhibitory concentration ([25]; S. aureus-25923): 0.031 µg/mL (≈ 0.0566 µM); minimum inhibitory concentration ([26]; S. aureus-29213): 0.063 µg/mL (≈ 0.115 µM); minimum inhibitory concentration [27]: 0.031 µg/mL (≈ 0.0566 µM); treatment effect in mice ([28]; compared with marketed drugs): superior to the marketed Tiamulin and Valnemulin; mortality rate ([28]; day 2, 20 mg/kg intravenously): 40%; final survival rate ([28]; 20 mg/kg intravenously): 60%
C=C[C@]1(C)C[C@@H](OC(=O)CSCCN(CC)CC)[C@]2(C)[C@H](C)CC[C@]3(CCC(=O)[C@H]32)[C@@H](C)[C@@H]1O [Tiamulin] | 0.5 | 1 | 0.5 | 0.5 | 0.5 | 0.5 | 0.5 | 0.5 | 0.5 | 0.5 | 0.25 | 1 | 0.125 | 0.5 | 0.5 | 0.5 | 0.5 | 0.5 | 10 | 50 | in vitro minimum inhibitory concentration [1]: 0.5 µg/mL; in vitro minimum inhibitory concentration [15]: 0.5 µg/mL; in vitro minimum inhibitory concentration [20]: 0.25 µg/mL; MIC ([22]; S. dysgalactiae-2): 0.25 µg/mL (≈ 0.506 µM); MIC ([23]; S. dysgalactiae-3): 0.25 µg/mL (≈ 0.506 µM); MIC ([24]; S. dysgalactiae-1): 0.25 µg/mL (≈ 0.506 µM); MIC ([25]; S. aureus-25923): 0.25 µg/mL (≈ 0.506 µM); MIC ([26]; S. aureus-29213): 0.5 µg/mL (≈ 1.01 µM); MIC [27]: 0.5 µg/mL (≈ 1.01 µM); mortality rate ([28]; day 2, 20 mg/kg intravenously): 80%; mortality rate ([28]; day 3, 20 mg/kg intravenously): 90%; final survival rate ([28]; 20 mg/kg intravenously): 10%
C=C[C@]1(C)C[C@@H](OC(=O)CSC(C)(C)CNC(=O)[C@H](N)C(C)C)[C@]2(C)[C@H](C)CC[C@]3(CCC(=O)[C@H]32)[C@@H](C)[C@@H]1O [Valnemulin] | 0.063 | 0.063 | 0.125 | 0.031 | 0.063 | 0.125 | 0.063 | 0.063 | 0.063 | 0.063 | 0.063 | 0.063 | 0.063 | 0.063 | 0.063 | 0.063 | 0.063 | 0.063 | 20 | 30 | in vitro minimum inhibitory concentration ([1]; in µg/mL): 0.063; in vitro minimum inhibitory concentration [15]: 0.25 µg/mL; in vitro minimum inhibitory concentration ([20]; in µg/mL): 0.063; MIC [22]: 0.031 µg/mL (≈ 0.0549 µM); MIC [23]: 0.031 µg/mL (≈ 0.0549 µM); MIC [24]: 0.031 µg/mL (≈ 0.0549 µM); MIC [25]: 0.031 µg/mL (≈ 0.0549 µM); MIC [26]: 0.063 µg/mL (≈ 0.112 µM); MIC [27]: 0.031 µg/mL (≈ 0.0549 µM); mortality rate ([28]; day 2, 20 mg/kg intravenously): 80%; final survival rate ([28]; 20 mg/kg intravenously): 20%

Source: patent publication US20250129018A1, “PLEUROMUTILIN DERIVATIVES CONTAINING CYCLOALKYL GROUP AND PREPARATION METHODS AND APPLICATIONS THEREOF” (priority 2023, published 2025)
